ChEMBL document CHEMBL3044846, “Synthesis and structureactivity relationships of serotonin derivatives effect on -glucosidase inhibition” (Med Chem Res, 2012)
Activity calls are given as the source filed them. The calls are words filed in the database; no cut-off is given here.

Tests used:
[1] = target: Alpha-glucosidase MAL62 (Saccharomyces cerevisiae) (UniProt P07265); experiment: Inhibition of yeast alpha-glucosidase using p-nitrophenyl-alpha-D-glucopyranoside as substrate preincubated at 300 uM for 10 min before substrate addition and measured after 10 min by spectrophotometry
Alpha-glucosidase MAL62 [2] = target: T1, Alpha-glucosidase MAL62 (Saccharomyces cerevisiae, UniProt P07265); experiment: (§1) Inhibition of yeast alpha-glucosidase using p-nitrophenyl-alpha-D-glucopyranoside as substrate preincubated for 10 min before substrate addition and measured after 10 min by spectrophotometry
[3] = target: Alpha-glucosidase MAL62 (Saccharomyces cerevisiae) (UniProt P07265); experiment: as §1
Alpha-glucosidase MAL62 [4] = target: T1, Alpha-glucosidase MAL62; experiment: Uncompetitive inhibition of yeast alpha-glucosidase by Lineweaver-Burk plot analysis
[5] = target: Alpha-glucosidase MAL62 (Saccharomyces cerevisiae) (UniProt P07265); experiment: Competitive inhibition of yeast alpha-glucosidase by Lineweaver-Burk plot analysis
Alpha-glucosidase MAL62 [6] = target: T1, Alpha-glucosidase MAL62; experiment: Competitive inhibition of yeast alpha-glucosidase by Dixon plot analysis
Alpha-glucosidase MAL62 [7] = target: T1, Alpha-glucosidase MAL62; experiment: Mixed-type inhibition of yeast alpha-glucosidase by Lineweaver-Burk plot analysis

Alpha-glucosidase MAL62 (Saccharomyces cerevisiae), sequence (P07265 whole entry): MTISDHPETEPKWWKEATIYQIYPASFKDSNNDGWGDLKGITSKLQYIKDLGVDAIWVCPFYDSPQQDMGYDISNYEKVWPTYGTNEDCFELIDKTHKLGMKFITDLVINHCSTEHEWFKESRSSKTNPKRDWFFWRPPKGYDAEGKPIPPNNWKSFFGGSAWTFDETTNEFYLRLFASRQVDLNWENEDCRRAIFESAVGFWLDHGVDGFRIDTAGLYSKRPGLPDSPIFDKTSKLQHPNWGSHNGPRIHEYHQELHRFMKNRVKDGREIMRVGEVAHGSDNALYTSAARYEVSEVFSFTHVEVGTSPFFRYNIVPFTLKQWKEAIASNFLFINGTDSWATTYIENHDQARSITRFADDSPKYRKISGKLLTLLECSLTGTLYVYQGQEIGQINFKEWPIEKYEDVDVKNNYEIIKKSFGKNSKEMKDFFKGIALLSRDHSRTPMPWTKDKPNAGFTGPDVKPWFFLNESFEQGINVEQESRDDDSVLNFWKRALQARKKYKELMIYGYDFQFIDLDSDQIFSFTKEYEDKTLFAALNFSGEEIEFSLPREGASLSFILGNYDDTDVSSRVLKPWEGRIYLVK
T1 sequence (P07265 whole entry): as above

Row | SMILES | IC50 (Alpha-glucosidase MAL62 [2]) | inhibition [3] | further results
1 | O=C(O)/C=C/c1ccc(O)c(O)c1 [CAFFEIC ACID] | > 300 µM |  | inhibition [1]: 10.2%
2 | O=C(O)/C=C/c1ccccc1 [CINNAMIC ACID] | > 300 µM |  | inhibition [1]: 4.5%
3 | O=C(O)/C=C/c1ccc(O)cc1 [COUMARIC ACID] | > 300 µM |  | inhibition [1]: 4.9%
4 | OC[C@H]1NC[C@H](O)[C@@H](O)[C@@H]1O [DUVOGLUSTAT] | 278 µM |  | 
5 | COc1cc(/C=C/C(=O)O)ccc1O [FERULATE] | > 300 µM |  | 
6 | COc1ccc(/C=C/C(=O)NCCc2c[nH]c3ccc(O)cc23)cc1OC [N-3,4-DIMETHOXY CINNAMOYL SEROTONIN] | > 300 µM | Dose-dependent effect | 
7 | O=C(/C=C/c1ccc(O)c(O)c1)NCCc1c[nH]c2ccc(O)cc12 [N-CAFFEOYLSEROTONIN] | 48.2 µM | Dose-dependent effect | Ki (Alpha-glucosidase MAL62 [4]): 64.4 µM
8 | O=C(/C=C/c1ccccc1)NCCc1c[nH]c2ccc(O)cc12 [N-CINNAMOYL SEROTONIN] | 80.8 µM | Dose-dependent effect | inhibition [5]: Active; Ki (Alpha-glucosidase MAL62 [6]): 133 µM
9 | O=C(CCc1ccc(O)cc1)NCCc1c[nH]c2ccc(O)cc12 [N-DIHYDRO-P-COUMAROYLSEROTONIN] | > 300 µM |  | 
10 | O=C(CCc1ccc(O)c(O)c1)NCCc1c[nH]c2ccc(O)cc12 [N-DIHYDROCAFFEOYL SEROTONIN] | > 300 µM |  | 
11 | O=C(CCc1ccccc1)NCCc1c[nH]c2ccc(O)cc12 [N-DIHYDROCINNAMOYL SEROTONIN] | > 300 µM |  | 
12 | COc1cc(CCC(=O)NCCc2c[nH]c3ccc(O)cc23)ccc1O [N-DIHYDROFERULOYL SEROTONIN] | > 300 µM |  | 
13 | COc1cc(CCC(=O)NCCc2c[nH]c3ccc(O)cc23)cc(OC)c1O [N-DIHYDROSINAPOYL SEROTONIN] | > 300 µM |  | 
14 | COc1cc(/C=C/C(=O)NCCc2c[nH]c3ccc(O)cc23)ccc1O [N-FERULOYL SEROTONIN] | 99.8 µM | Dose-dependent effect | Ki (Alpha-glucosidase MAL62 [7]): 130 µM
15 | COc1ccc(/C=C/C(=O)NCCc2c[nH]c3ccc(O)cc23)cc1O [N-ISOFERULOYL SEROTONIN] | > 300 µM | Dose-dependent effect | 
16 | O=C(/C=C/c1ccc(O)cc1)NCCc1c[nH]c2ccc(O)cc12 [N-P-COUMAROYL SEROTONIN] | 47.2 µM | Dose-dependent effect | Ki (Alpha-glucosidase MAL62 [4]): 81.6 µM
17 | COc1ccc(/C=C/C(=O)NCCc2c[nH]c3ccc(O)cc23)cc1 [N-P-METHOXY CINNAMOYL SEROTONIN] | > 300 µM | Dose-dependent effect | 
18 | COc1cc(/C=C/C(=O)NCCc2c[nH]c3ccc(O)cc23)cc(OC)c1O [N-SINAPOYL SEROTONIN] | 66.2 µM | Dose-dependent effect | Ki (Alpha-glucosidase MAL62 [7]): 111 µM
19 | NCCc1c[nH]c2ccc(O)cc12 [SEROTONIN] | > 300 µM |  | inhibition [1]: 25.6%
20 | COc1cc(/C=C/C(=O)O)cc(OC)c1O [SINAPINATE] | 145 µM |  | 
